Measurements taken from BindingDB's records for doi:10.1111/j.1747-0285.2006.00365.x (Johnson & Johnson Pharmaceutical Research & Development, 2006).

Target: p53 binding protein (Homo sapiens, UniProt Q9H4C2)
Assay: HDM2 Binding Assay
Text: Binding assay using 1,4-benzodiazepine-2,5-dione (BZD) scaffold and HDM2-p53 protein.

p53 binding protein, sequence (Q9H4C2 whole entry): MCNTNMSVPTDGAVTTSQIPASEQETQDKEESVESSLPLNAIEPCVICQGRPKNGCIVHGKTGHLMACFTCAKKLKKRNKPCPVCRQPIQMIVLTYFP

O=C(O)C(c1ccccc1)N1C(=O)c2cc(I)ccc2NC(=O)C1c1ccccc1 (stereo not given) [BZD Scaffold, 3]
IC50: 29 µM

O=C(O)C(c1ccccc1)N1C(=O)c2ccccc2NC(=O)C1c1ccccc1 (stereo not given) [BZD Scaffold, 1]
IC50: > 125 µM

O=C(O)C(c1ccccc1)N1C(=O)c2cc(I)ccc2NC(=O)C1c1ccc(C(F)(F)F)cc1 (stereo not given) [BZD Scaffold, 4]
IC50: 3.8 µM

CC(C)c1ccc2c(c1)C(=O)N(C(C(=O)O)c1ccc(Cl)cc1)C(c1ccc(Cl)cc1)C(=O)N2 (stereo not given) [BZD Scaffold, 2]
IC50: 1 µM

O=C(O)C(c1ccccc1)N1C(=O)c2cc(I)ccc2NC(=O)C1c1ccc(Cl)cc1 (stereo not given) [BZD Scaffold, 5]
IC50: 1.7 µM
